Measurements as given in patent US10682388B2, “Targeting of PELP1 in cancer therapy” (THE BOARD OF REGENTS OF THE UNIVERSITY OF TEXAS SYSTEM, priority 2014, dated 2020).

Assays:
ZRPELP1 cells = assay: Initial screen, proliferation assay of PELP1-overexpressing breast cancer cells; type: cell-based, Human; conditions: FIG. 1B
Method: FIGS. 1A-D. (FIG. 1A) Diagram for yeast two hybrid screen to identify PELP1 binding peptides. Four regions of PELP1 were tagged with the binding domain and a library of 10^6 random peptides (Clontech) were bound to an activation domain. The number of positive colonies per region of PELP1 are shown in the graph. (FIG. 1B) A proliferation assay was performed with […]1 cells plated in a 96 well plate, treated with peptide every 3 days and absorbance was measured at 7 days. (FIG. 1C) ZR75 were plated in a 6-well plate on coverslips in 8% RPMI and treated with 10 uM FITC labeled peptide for 30, 60, or 120 minutes. They were then fixed with pararformaldehyde, stained for PELP1 (red) and DAPI (blue), and imaged by confocal microscopy to monitor intracellular delivery. (FIG. 1D) ZR75 cells were starved of estrogen for 72 hours and treated with estradiol 10^-7 M for 12 hours. Nuclear lysate was incubated with biotin-tagged peptides bound to avidin beads for one hour. Beads were washed, run on SDS-PAGE gel and probed for PELP1 expression. Input of nuclear lysate is shown as control. Cell proliferation rates were measured by using MTT Cell Viability Assay in 96-well plates. Model cells were seeded in 96-well plates (1×10^3 cells/well) in DMEM or RPMI medium containing 10% serum. After an overnight incubation, cells were treated with varying concentrations of the peptides for 3-7 days and growth inhibition was determined by using traditional MTT assay (Sigma) following manufacturer's instructions.

ZR75 cells = assay: TUNEL assay; type: cell-based, Human; conditions: 10 μM, 24 hours, FIG. 5D
Method: FIGS. 5A-D. (FIG. 5A) ZR75vec, ZR75PELP1, MCF7vec and MCF7PELP1 cells were plated in the top of a Boyden chamber transwell, treated with TAT, PIP1 or PIP2 (10 μM) and absorbance was measured at 12 hours in triplicate. (FIG. 5B) MCF7vec, MCFP7ELP1, ZR75vec and ZR75PELP1 cells were treated in triplicate with TAT, PIP1 or PIP2 (10 μM) every 3 days, fixed with methanol on day 10 and stained with crystal violet. Average colonies per well are shown. (FIG. 5C) ZR75vec and ZR75PELP1 cells were plated in triplicate in agar with 8% RPMI with TAT, PIP1 or PIP2 (10 μM). Colonies were counted on day 14, representative images are shown on right. (FIG. 5D) ZR75 cells were plated on coverslips in triplicate and treated with TAT or PIP1 (10 μM) for 24 hours. Cells were fixed with paraformaldehyde and labeled with TUNEL and DAPI, representative images are shown on right.
ZR75 and ZR75PELP1 cells were plated on coverslips in 8% RPMI and treated with peptide for 24 hours. Cells were labeled with in situ Cell Death Detection Kit (Roche) according to manufacturer's protocol, imaged by fluorescent microscopy and quantified.

PELP1-G9a complex = target: T1, PELP1-G9a complex (Homo sapiens, UniProt Q8IZL8); assay: In vitro peptide competition assay, G9a-GST on glutathione beads with purified PELP1; type: binding; conditions: peptides 2, 5, 10 μM, 2 hours, FIGS. 2C, 7B, 9
T1 construct: purified bacterial, full-length PELP1; host or cells: bacteria (PELP1)
Method: FIGS. 2A-D. (FIG. 2A) Immunoprecipitation was performed on nuclear lysates obtained from ZRPELP1 cells grown in 5% DCC for 72 hours and treated with estradiol 10^−7 M for 12 hours. PELP1 was immunoprecipitated and western blotting was performed for PELP1 and G9a expression with IgG as the control. (FIG. 2B) Various fragments of PELP1 bound to glutathione beads were incubated with recombinant G9a for 2 hours. Beads were washed, run on an SDS-PAGE gel and immunoblotted for G9a expression. GST tag alone is shown as control. (FIG. 2C) Recombinant G9a-GST was bound to glutathione beads and incubated with purified PELP1 and peptides for 2 hours. Beads were washed and run on SDS-PAGE gel. (FIG. 2D) ZR75 cells were transfected with ERE-luciferase, PELP1 and/or G9a plasmids and treated with peptide for 24 hours and estradiol 10^−7 M for 12 hours. Relative luciferase activity is shown.
FIGS. 7A-E. (FIG. 7A) Bacterial purified PELP1 was incubated with biotin-tagged peptides bound to avidin beads for one hour. Beads were washed, run on SDS-PAGE gel and probed for PELP1 expression. Input of bacterial PELP1 is shown as control. (FIG. 7B) Recombinant G9a-GST was bound to glutathione beads and incubated with purified PELP1 and peptides for 2 hours. Beads were washed and run on SDS-PAGE gel. (+2 μM, ++5 μM, +++10 μM). (FIG. 7C) ZRGST and ZRPELP1GST cells were transfected in triplicate with TopFlash β-catenin reporter and treated with TAT or PIP1 (10 μM) for 24 hours. Relative luciferase activity is shown. (FIG. 7D) MCF7vec and MCF7PELP1 cells were treated with TAT or PIP1 (10 μM) and toxicity was measured by CytoTox-Flour Cytotoxicity Assay. (FIG. 7E) ZR75 and ZR75PELP1 cells were treated with TAT, PIP1 or PIP2 for 24 hours and immunoblotted for PELP1 and ERα expression with actin as the loading control.
FIG. 9. […]
Peptides were linked to EZ-Link NHS-Biotin (Thermo Scientific) per manutfacturer's protocol. […] Beads were washed 3× with IP buffer (20 mM HEPES pH 7.9, 20% glycerol, 0.1% triton-x, 100 mM KCl), eluted with SDS-dye, and PELP1 expression was determined by western blotting. […]

[1] = test system: ZRPELP1 and MCF7-PELP1 cells; assay: Mammosphere formation assay; type: cell-based, Human; conditions: 10 μM and 20 μM, FIG. 12
Method: FIG. 12. Effect of PIP1 on mammosphere formation. Single-cell suspensions of ZR75-PELP1 were plated in triplicate wells at a density of 10,000 cells per ml in mammosphere medium in non-adherent plates. Cultures were treated with indicated concentration of PIP1 and mammospheres were counted after 7 days. ZR75PELP1 and MCF7PELP1 cells were FACS sorted for CD44-APC^high (Milteny Biotec) and CD24-PE^low (Milteny Biotec) cell surface markers. A single cell suspension of model cells ZR75-PELP1 were seeded in mammosphere media in a low adherent 96-well plate with TAT or PIP (10, 20 or 50 μM). Media containing peptide was added on day 4 and mammospheres were counted and imaged on day 8 (Shaw et al., 2012).

T1 sequence (Q8IZL8 2-1130, one chain of several): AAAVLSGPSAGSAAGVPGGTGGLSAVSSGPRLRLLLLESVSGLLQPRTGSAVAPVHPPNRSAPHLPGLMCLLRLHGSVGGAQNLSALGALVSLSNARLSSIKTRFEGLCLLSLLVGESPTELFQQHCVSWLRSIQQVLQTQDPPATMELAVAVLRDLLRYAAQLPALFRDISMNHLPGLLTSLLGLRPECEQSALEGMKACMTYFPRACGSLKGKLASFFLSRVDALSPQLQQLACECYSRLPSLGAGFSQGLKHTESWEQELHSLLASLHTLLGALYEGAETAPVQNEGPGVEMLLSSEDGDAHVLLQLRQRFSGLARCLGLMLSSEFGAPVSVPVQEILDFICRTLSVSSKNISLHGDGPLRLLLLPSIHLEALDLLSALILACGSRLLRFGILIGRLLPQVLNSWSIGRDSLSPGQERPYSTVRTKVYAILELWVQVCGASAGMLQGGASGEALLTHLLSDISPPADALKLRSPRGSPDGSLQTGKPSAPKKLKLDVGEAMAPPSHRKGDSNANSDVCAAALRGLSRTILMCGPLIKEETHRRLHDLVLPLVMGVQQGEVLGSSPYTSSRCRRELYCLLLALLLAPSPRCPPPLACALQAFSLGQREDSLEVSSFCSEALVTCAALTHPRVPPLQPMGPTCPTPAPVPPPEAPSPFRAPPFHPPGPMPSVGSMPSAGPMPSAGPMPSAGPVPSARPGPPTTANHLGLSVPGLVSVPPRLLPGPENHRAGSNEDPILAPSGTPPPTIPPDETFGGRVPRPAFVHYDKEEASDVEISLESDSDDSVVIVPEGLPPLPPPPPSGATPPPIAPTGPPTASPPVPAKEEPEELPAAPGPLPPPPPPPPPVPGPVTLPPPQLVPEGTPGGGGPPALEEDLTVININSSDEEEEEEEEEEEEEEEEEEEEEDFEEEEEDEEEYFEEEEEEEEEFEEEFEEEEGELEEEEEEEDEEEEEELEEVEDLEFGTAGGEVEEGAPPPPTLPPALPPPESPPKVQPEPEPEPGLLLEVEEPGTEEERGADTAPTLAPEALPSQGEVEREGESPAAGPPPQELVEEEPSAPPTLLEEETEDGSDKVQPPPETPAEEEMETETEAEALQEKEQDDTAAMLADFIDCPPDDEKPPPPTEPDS

Sequence: GRKKRRQRRRGGMVEFRWSCPGRRKAKA [PIP1]
- efficiency at inhibiting proliferation, PIP1 compared with PIP2 (ZRPELP1 cells): more efficient at inhibiting proliferation than PIP2
- PELP1-mediated breast cancer cell proliferation (ZRPELP1 cells; peptide every 3 days, absorbance at 7 days): significantly inhibit PELP1-mediated proliferation
- apoptosis by TUNEL assay (ZR75 cells): induces apoptosis
- disruption of PELP1 interaction with G9a/EHMT2 (PELP1-G9a complex): disrupted by the addition of either of the two peptides in a dose-dependent manner
- number of mammospheres [1]: significant decrease in the number of mammospheres
- size of the mammospheres [1]: substantially decreased
